Data published in paper PMC11940079, “Identification of a Possible Endocannabinoid-Mediated Mechanism of Action of Cetylated Fatty Acids” (Biomolecules, 2025).

What was measured:
[1] = molecular target: T1, human monoacylglycerol lipase (hMAGL) (Homo sapiens, UniProt Q99685); assay: spectrophotometric assay with 4-nitrophenyl acetate, recombinant human MAGL, dose-response; type: biochemical
T1 construct: gene MGLL
T1 sequence (Q99685 1-303): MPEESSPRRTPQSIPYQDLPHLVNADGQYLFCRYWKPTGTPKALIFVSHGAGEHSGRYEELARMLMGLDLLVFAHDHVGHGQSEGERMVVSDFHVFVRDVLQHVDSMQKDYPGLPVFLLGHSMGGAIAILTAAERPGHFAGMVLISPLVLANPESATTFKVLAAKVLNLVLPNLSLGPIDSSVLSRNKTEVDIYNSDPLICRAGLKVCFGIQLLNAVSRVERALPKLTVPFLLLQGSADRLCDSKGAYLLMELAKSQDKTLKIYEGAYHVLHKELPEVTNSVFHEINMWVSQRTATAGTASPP

[2] = molecular target: T1, human monoacylglycerol lipase (hMAGL); assay: spectrophotometric assay with 4-nitrophenyl acetate, single-point % inhibition at […]; type: biochemical

Compound	IC50 [1] [µM]	spectrophotometric assay with 4-nitrophenyl acetate, single-point % inhibition a [2]
CCCCCCCCCCCCCCCCOC(=O)CCCCCCCCC [3b, Hexadecyl decanoate]	36 ± 4	
CCCCCC/C=C\CCCCCCCC(=O)OCCCCCCCCCCCCCCCC [3h, Hexadecyl (Z)-hexadec-9-enoate]		its close analogue 3h (cetyl palmitoleate), possessing the double bond at the same distance from the ester group as 3g, proved to be equally active
CCCCCCCC/C=C\CCCCCCCC(=O)OCCCCCCCCCCCCCCCC [3i, Hexadecyl oleate]		their longer analogue 3i (cetyl oleate) displayed slightly weaker potency in the same test
